Measurements reported in patent publication US9149038B2, “4-amino-6-(heterocyclic)picolinates and 6-amino-2-(heterocyclic)pyrimidine-4-carboxylates and their use as herbicides” (Dow AgroSciences LLC, priority 2013, dated 2015).
Read-outs that look alike come from different tables or passages of the source.

Assays:
[1] = system: Key Broadleaf Weed and Crop Species; assay: Post-Emergent Test II: postemergent herbicidal activity, visual rating after 14 d (Table 7); assay type: in vivo; settings: post-emergence, 336 h; for pest or weed control at 35 g/ha: 35 g ai/ha; for pest or weed control at 70 g/ha: 70 g ai/ha; for pest or weed control at 140 g/ha: 140 g ai/ha
Summary of the method: (§1)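 Greenhouse plants at first or second true leaf stage sprayed with compound in acetone/DMSO-based spray solution with crop oil concentrate and Triton X-155 at 187 L/ha, tested at highest rate and ½× to 1/16× dilutions; solvent blank controls. Injury rated visually 0–100% versus untreated plants after 14 d.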

[2] = system: Key Grass and Sedge Weeds as well as Grass Crops; assay: Post-Emergent Test II: postemergent herbicidal activity, visual rating after 14 d (Table 8); assay type: in vivo; settings: post-emergence, 336 h; for pest or weed control at 35 g/ha: 35 g ai/ha; for pest or weed control at 70 g/ha: 70 g ai/ha; for pest or weed control at 140 g/ha: 140 g ai/ha
Summary of the method: as §1

[3] = lambsquarters (Chenopodium album), read-out: Visual Growth Reduction (%) 14 Days After Application CHEAL
[4] = oilseed rape, canola (Brassica napus), read-out: Visual Growth Reduction (%) 14 Days After Application BRSNN
[5] = redroot pigweed (Amaranthus retroflexus), read-out: Visual Growth Reduction (%) 14 Days After Application AMARE
[6] = sunflower (Helianthus annuus), read-out: Visual Growth Reduction (%) 14 Days After Application HELAN
[7] = velvetleaf (Abutilon theophrasti), read-out: Visual Growth Reduction (%) 14 Days After Application ABUTH
[8] = wild poinsettia (Euphorbia heterophylla), read-out: Visual Growth Reduction (%) 14 Days After Application EPHHL
[9] = barnyardgrass (Echinochloa crus-galli), read-out: Visual Growth Reduction (%) 14 Days After Application ECHCG
[10] = giant foxtail (Setaria faberi), read-out: Visual Growth Reduction (%) 14 Days After Application SETFA
[11] = maize, corn (Zea mays), read-out: Visual Growth Reduction (%) 14 Days After Application ZEAMX
[12] = rice (Oryza sativa), read-out: Visual Growth Reduction (%) 14 Days After Application ORYSA
[13] = wheat, spring (Triticum aestivum), read-out: Visual Growth Reduction (%) 14 Days After Application TRZAS
[14] = yellow nutsedge (Cyperus esculentus), read-out: Visual Growth Reduction (%) 14 Days After Application CYPES

Nc1c(F)c(-c2cc(F)c3c(c2)OC(F)(F)O3)nc(C(=O)O)c1Cl [Compound 18]
pest or weed control at 35 g/ha [1, 3]: 0 to 29% | pest or weed control at 70 g/ha [1, 3]: 0 to 29% | pest or weed control at 140 g/ha [1, 3]: 0 to 29% | pest or weed control at 35 g/ha [1, 4]: 0 to 29% | pest or weed control at 70 g/ha [1, 4]: 0 to 29% | pest or weed control at 140 g/ha [1, 4]: 0 to 29% | pest or weed control at 35 g/ha [1, 5]: 0 to 29% | pest or weed control at 70 g/ha [1, 5]: 0 to 29% | pest or weed control at 140 g/ha [1, 5]: 0 to 29% | pest or weed control at 35 g/ha [1, 6]: 0 to 29% | pest or weed control at 70 g/ha [1, 6]: 0 to 29% | pest or weed control at 140 g/ha [1, 6]: 45 to 59% | pest or weed control at 35 g/ha [1, 7]: 0 to 29% | pest or weed control at 70 g/ha [1, 7]: 0 to 29% | pest or weed control at 140 g/ha [1, 7]: 0 to 29% | pest or weed control at 35 g/ha [1, 8]: 0 to 29% | pest or weed control at 70 g/ha [1, 8]: 0 to 29% | pest or weed control at 140 g/ha [1, 8]: 0 to 29% | pest or weed control at 35 g/ha [2, 9]: 45 to 59% | pest or weed control at 70 g/ha [2, 9]: 60 to 74% | pest or weed control at 140 g/ha [2, 9]: 60 to 74% | pest or weed control at 35 g/ha [2, 10]: 45 to 59% | pest or weed control at 70 g/ha [2, 10]: 45 to 59% | pest or weed control at 140 g/ha [2, 10]: 60 to 74% | pest or weed control at 35 g/ha [2, 11]: 0 to 29% | pest or weed control at 70 g/ha [2, 11]: 30 to 44% | pest or weed control at 140 g/ha [2, 11]: 60 to 74% | pest or weed control at 35 g/ha [2, 12]: 0 to 29% | pest or weed control at 70 g/ha [2, 12]: 0 to 29% | pest or weed control at 140 g/ha [2, 12]: 0 to 29% | pest or weed control at 35 g/ha [2, 13]: 0 to 29% | pest or weed control at 70 g/ha [2, 13]: 45 to 59% | pest or weed control at 140 g/ha [2, 13]: 45 to 59% | pest or weed control at 35 g/ha [2, 14]: 0 to 29% | pest or weed control at 70 g/ha [2, 14]: 0 to 29% | pest or weed control at 140 g/ha [2, 14]: 0 to 29%
